Measured values: US7829589B2, “Sulfonamide compounds and uses thereof” (Elixir Pharmaceuticals, Inc., priority 2005, dated 2010)
pKi: −log10 of the molar value.

Target: GHS-R (Homo sapiens, UniProt Q92847)
Test: GHS-R antagonist activity (Ki) in a cell based assay
Summary of the method: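 Transfected COS-7 cells were labelled 24 h with [^3H]-myo-inositol and preincubated 30 min at 37 °C in HEPES buffer pH 7.4 with 10 mM LiCl, optionally with 1 U/ml adenosine deaminase. Compound was applied for 45 min at 37 °C. [^3H]-inositol phosphates were extracted with perchloric acid and isolated by anion-exchange resin.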

Chain of GHS-R (Q92847 whole entry, species assumed): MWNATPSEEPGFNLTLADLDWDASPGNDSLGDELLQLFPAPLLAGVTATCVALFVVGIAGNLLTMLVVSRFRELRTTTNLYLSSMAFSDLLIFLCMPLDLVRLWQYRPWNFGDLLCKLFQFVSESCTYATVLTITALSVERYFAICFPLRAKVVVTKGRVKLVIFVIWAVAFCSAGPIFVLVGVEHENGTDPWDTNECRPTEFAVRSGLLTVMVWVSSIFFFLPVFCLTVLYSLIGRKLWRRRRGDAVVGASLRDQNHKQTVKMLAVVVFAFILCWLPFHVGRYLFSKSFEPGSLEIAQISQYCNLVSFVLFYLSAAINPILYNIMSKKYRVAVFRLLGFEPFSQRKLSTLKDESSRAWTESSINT

pKi | SMILES
> 7.00 | CCN(CC)CCCS(=O)(=O)N[C@H](CCc1ccccc1)c1nc(-c2ccc(Cl)cc2Cl)n[nH]1 [Compound 58, 3-Diethylamino-propane-1-sulfonic acid {(R)-1-[5-(2,4-dichloro-phenyl)-2H-[1,2,4]triazol-3-yl]-3-phenyl-propyl}-amide]
> 7.00 | CCN(CC)CCCS(=O)(=O)N[C@H](CCc1ccccc1)c1nc(-c2ccc(Br)cc2)no1 [Compound 59, 3-Diethylamino-propane-1-sulfonic acid {(R)-1-[3-(4-bromo-phenyl)-[1,2,4]oxadiazol-5-yl]-3-phenyl-propyl}-amide]
6.00 to 6.30 | CCN(CC)CCCS(=O)(=O)N[C@H](CCc1ccccc1)c1nc(CCOC)no1 [Compound 60, 3-Diethylamino-propane-1-sulfonic acid {(R)-1-[3-(2-methoxy-ethyl)-[1,2,4]oxadiazol-5-yl]-3-phenyl-propyl}-amide]
> 7.00 | CCN(CC)CCCS(=O)(=O)N[C@H](CCc1ccccc1)c1nc(-c2cccc(C)c2)n[nH]1 [Compound 61, 3-Diethylamino-propane-1-sulfonic acid [(R)-3-phenyl-1-(5-m-tolyl-2H-[1,2,4]triazol-3-yl)-propyl]-amide]
> 7.00 | CCN(CC)CCCS(=O)(=O)N[C@H](CCc1ccccc1)c1nc(Cc2cccc(F)c2)no1 [Compound 62, 3-Diethylamino-propane-1-sulfonic acid {(R)-1-[3-(3-fluoro-benzyl)-[1,2,4]oxadiazol-5-yl]-3-phenyl-propyl}-amide]
6.30 to 7.00 | CCN(CC)CCCS(=O)(=O)N[C@H](CCc1ccccc1)c1nc(-c2cc(F)ccc2F)n[nH]1 [Compound 63, 3-Diethylamino-propane-1-sulfonic acid {(R)-1-[5-(2,5-difluoro-phenyl)-2H-[1,2,4]triazol-3-yl]-3-phenyl-propyl}-amide]
> 7.00 | CCN(CC)CCCS(=O)(=O)N[C@H](CCc1ccccc1)c1nc(-c2cccc(Br)c2)no1 [Compound 64, 3-Diethylamino-propane-1-sulfonic acid {(R)-1-[3-(3-bromo-phenyl)-[1,2,4]oxadiazol-5-yl]-3-phenyl-propyl}-amide]
> 7.00 | CCN(CC)CCCS(=O)(=O)N[C@H](CCc1ccccc1)c1nc(-c2ccc([N+](=O)[O-])cc2)n[nH]1 [Compound 65, 3-Diethylamino-propane-1-sulfonic acid {(R)-1-[5-(4-nitro-phenyl)-2H-[1,2,4]triazol-3-yl]-3-phenyl-propyl}-amide]
> 7.00 | CCN(CC)CCCS(=O)(=O)N[C@H](CCc1ccccc1)c1nc(-c2ccc(F)cc2)no1 [Compound 66, 3-Diethylamino-propane-1-sulfonic acid {(R)-1-[3-(4-fluoro-phenyl)-[1,2,4]oxadiazol-5-yl]-3-phenyl-propyl}-amide]
6.30 to 7.00 | CCN(CC)CCCS(=O)(=O)N[C@H](CCc1ccccc1)c1nc(-c2ccc(Br)cc2C)no1 [Compound 67, 3-Diethylamino-propane-1-sulfonic acid {(R)-1-[3-(4-bromo-2-methyl-phenyl)-[1,2,4]oxadiazol-5-yl]-3-phenyl-propyl}-amide]
> 7.00 | CCN(CC)CCCS(=O)(=O)N[C@H](CCc1ccccc1)c1nc(Cc2ccccc2C)no1 [Compound 68, 3-Diethylamino-propane-1-sulfonic acid {(R)-1-[3-(2-methyl-benzyl)-[1,2,4]oxadiazol-5-yl]-3-phenyl-propyl}-amide]
> 7.00 | CCN(CC)CCCS(=O)(=O)N[C@H](CCc1ccccc1)c1nc(-c2ccc(OC)cc2)no1 [Compound 69, 3-Diethylamino-propane-1-sulfonic acid {(R)-1-[3-(4-methoxy-phenyl)-[1,2,4]oxadiazol-5-yl]-3-phenyl-propyl}-amide]
> 7.00 | CCN(CC)CCCS(=O)(=O)N[C@H](CCc1ccccc1)c1nc(-c2cccc(Cl)c2)n[nH]1 [Compound 70, 3-Diethylamino-propane-1-sulfonic acid {(R)-1-[5-(3-chloro-phenyl)-2H-[1,2,4]triazol-3-yl]-3-phenyl-propyl}-amide]
> 7.00 | CCN(CC)CCCS(=O)(=O)N[C@H](CCc1ccccc1)c1nc(-c2ccc(C)cc2)no1 [Compound 71, 3-Diethylamino-propane-1-sulfonic acid [(R)-3-phenyl-1-(3-p-tolyl-[1,2,4]oxadiazol-5-yl)-propyl]-amide]
> 7.00 | CCN(CC)CCCS(=O)(=O)N[C@H](CCc1ccccc1)c1nc(Cc2ccccc2F)no1 [Compound 72, 3-Diethylamino-propane-1-sulfonic acid {(R)-1-[3-(2-fluoro-benzyl)-[1,2,4]oxadiazol-5-yl]-3-phenyl-propyl}-amide]
> 7.00 | CCN(CC)CCCS(=O)(=O)N[C@H](CCc1ccccc1)c1nc(Cc2c(Cl)cccc2Cl)no1 [Compound 73, 3-Diethylamino-propane-1-sulfonic acid {(R)-1-[3-(2,6-dichloro-benzyl)-[1,2,4]oxadiazol-5-yl]-3-phenyl-propyl}-amide]
> 7.00 | CCN(CC)CCCS(=O)(=O)N[C@H](CCc1ccccc1)c1nc(Cc2cccc(Br)c2)no1 [Compound 74, 3-Diethylamino-propane-1-sulfonic acid {(R)-1-[3-(3-bromo-benzyl)-[1,2,4]oxadiazol-5-yl]-3-phenyl-propyl}-amide]
> 7.00 | CCN(CC)CCCS(=O)(=O)N[C@H](CCc1ccccc1)c1nc(Cc2ccccc2Br)no1 [Compound 75, 3-Diethylamino-propane-1-sulfonic acid {(R)-1-[3-(2-bromo-benzyl)-[1,2,4]oxadiazol-5-yl]-3-phenyl-propyl}-amide]
≤ 6.00 | CCN(CC)CCS(=O)(=O)N[C@H](CCc1ccccc1)c1nc(-c2cccc(Br)c2)no1 [Compound 76, 2-Diethylamino-ethanesulfonic acid {(R)-1-[3-(3-bromo-phenyl)-[1,2,4]oxadiazol-5-yl]-3-phenyl-propyl}-amide]
≤ 6.00 | CCN(CC)CCS(=O)(=O)N[C@H](CCc1ccccc1)c1nc(-c2cnccc2C)no1 [Compound 77, 2-Diethylamino-ethanesulfonic acid {(R)-1-[3-(4-methyl-pyridin-3-yl)-[1,2,4]oxadiazol-5-yl]-3-phenyl-propyl}-amide]
6.00 to 6.30 | CCN(CC)CCS(=O)(=O)N[C@H](CCc1ccccc1)c1nc(CCOC)no1 [Compound 78, 2-Diethylamino-ethanesulfonic acid {(R)-1-[3-(2-methoxy-ethyl)-[1,2,4]oxadiazol-5-yl]-3-phenyl-propyl}-amide]
6.30 to 7.00 | CCN(CC)CCS(=O)(=O)N[C@H](CCc1ccccc1)c1nc(-c2ccc(Br)cc2)no1 [Compound 79, 2-Diethylamino-ethanesulfonic acid {(R)-1-[3-(4-bromo-phenyl)-[1,2,4]oxadiazol-5-yl]-3-phenyl-propyl}-amide]
6.30 to 7.00 | CCN(CC)CCCS(=O)(=O)N[C@H](CCc1ccccc1)c1nc(-c2ccc(OC)c(OC)c2)n[nH]1 [Compound 80, 3-Diethylamino-propane-1-sulfonic acid {(R)-1-[5-(3,4-dimethoxy-phenyl)-2H-[1,2,4]triazol-3-yl]-3-phenyl-propyl}-amide]
6.30 to 7.00 | CCN(CC)CCS(=O)(=O)N[C@H](CCc1ccccc1)c1nc(Cc2ccc3c(c2)OCO3)no1 [Compound 81, 2-Diethylamino-ethanesulfonic acid [(R)-1-(3-benzo[1,3]dioxol-5-ylmethyl-[1,2,4]oxadiazol-5-yl)-3-phenyl-propyl]-amide]
